From patent US20240173255A1, “Polymeric Micelle Coated with Chain-Like Poorly Soluble Drug, Preparation Method and Application” (Hangzhou Hanjing Biotechnology Co., Ltd, priority 2021, published 2024)
Values after ≈ are worked out from the molar mass of the structure shown.

Assays:
[1] = tested on: H22 mouse liver cancer subcutaneous tumor transplants; experiment: Treatment test on subcutaneous tumor transplants in mice; format: in vivo; settings: ICR mice, 20 mg/kg tail vein once a day for 10 days, tumors removed on 11th day
Description: 30 ICR mice weighing about 20 g were randomly divided into 3 groups, with 10 mice in each group. Liver cancer H22 cells were inoculated subcutaneously into the right armpit of mice. The next day, mice in Group 1 were injected with CPD14 injection without Soluplus prepared according to Example 2 at 20 mg/kg through the tail vein; mice in Group 2 waere injected with the polymeric micelle prepared according to Example 2 at 20 mg/kg through the tail vein; and mice in Group 3 were injected with the Soluplus blank micelle without drug at 20 mg/kg through the tail vein. The mice were injected once a day for 10 consecutive days, and the body weight of the mice was recorded and the status of the mice was observed every day. On the 11th day, the tumors of the mice were removed and measured.

[2] = Stability test in blood; format: in vitro ADME; settings: 37° C., 2 h, FIG. 4
Description: Taking the polymeric micelle prepared according to Example 2 as an example: in a 96-well plate, 10 μL of the polymeric micelle was added, then 190 μL of blood was added and shaken quickly to be uniform. At 37° C., a resulting mixture was taken out at preset time points of 5 min, 30 min, 60 min, and 120 min separately, and centrifuged at 3,000 rpm for 10 min to separate a plasma layer (upper layer) and a red blood cell layer (lower layer), each 100 μL. The plasma and red blood cell samples were treated using an organic solvent extraction method, and a concentration of CPD14 molecules in the samples was quantified and analyzed using HPLC (gradient method), while CPD14 molecules not entrapped by Soluplus were used as a control.

[3] = Solubility of series A to E drugs in water and 10% Soluplus solution; format: physicochemical
From the text: The solubilities of the poorly soluble chain-like drugs of the series A to E according to the present disclosure in water and a 10% Soluplus solution are shown in Table 2.

[4] = tested on: mouse liver cancer H22 cells; experiment: Cancer cell inhibition test (EZMTT), H22; format: cell-based; settings: 5 days culture
Description: (§1) Taking the polymeric micelle prepared according to Example 2 as an example: the polymeric micelle was added to a 96-well plate, and 1,000 each of […] lung cancer A549 cells and mouse liver cancer H22 cells were added to each well.

[5] = tested on: mouse lung cancer A549 cells; experiment: Cancer cell inhibition test (EZMTT), A549; format: cell-based; settings: 5 days culture
Description: as §1

[6] = Bioavailability test (pharmacokinetics) in ICR mice; format: in vivo, mouse; settings: 10 mg/kg tail vein injection
Description: 36 Institute of Cancer Research (ICR) mice weighing about 20 g were randomly divided into 2 groups, with 18 mice in each group. The mice all were separately administered using a CPD14 injection without Soluplus entrapment prepared according to Example 2 and the polymeric micelle prepared according to Example 2 in the same concentration, at a dose of 10 mg/kg by tail vein injection. Blood was collected at 0.003 h, 0.17 h, 0.5 h, 1 h, 2 h, 4 h, 8 h, 12 h, and 24 h after administration, and a plasma concentration of CPD14 was measured after treating the whole blood or plasma.

COc1ccc2[se]n(CCCCCCn3[se]c4ccc(O)cc4c3=O)c(=O)c2c1 [CPD14]
Tumor weight of H22 tumor transplant [1]: 2.15 ± 0.05 g | stability rate in blood [2]: significantly lower than that of the polymeric micelle | Solubility in 10% Soluplus ([3]; 10% Soluplus solution): >1000 µg/mL | Solubility in water ([3]; water): 10 µg/mL (≈ 19.1 µM) | IC50 [4]: 0.51 ± 0.04 µM | IC50 [5]: 0.49 ± 0.07 µM | AUC0 h→24 h [6]: 9600 ± 1100 ng·h/mL | CL [6]: 17 ± 2 mL/min/kg | Cmax [6]: 6600 ± 700 ng/mL | T1/2β [6]: 102 ± 0.6 min | Tmax [6]: 1.98 min
